Test results from US20240285670A1, “THERAPEUTIC TREATMENT OF TUMORS BY BLOCKING THE HEME SYNTHESIS-EXPORT AXIS” (Università degli Studi di Torino, priority 2021, published 2024).

Columns and labels:
Format in all cases: cell-based, human
BTECs = experiment: Mitochondrial ATP levels in BTECs; settings: FLVCR1a-silenced vs scramble shRNA BTECs
Text: (§1) Results were expressed as nmol NAD*/min/mg mitochondrial protein for complex I, nmol reduced cytochrome c/min/mg mitochondrial protein for complexes II-III, nmol oxidized cytochrome c/min/mg mitochondrial protein for complex IV. Data represent mean±SEM, n=3. For statistical analyses, an unpaired Student's t-test was used; *=p<0.05, **=p<0.01, *=p<0.001. […] Results are expressed as nmol/mg mitochondrial proteins. Data represent mean±SEM, n=3. For statistical analyses, an unpaired Student's t-test was used; *=p<0.05. […] Results are expressed as pmol CO2/h/mg protein. Data represent mean±SEM, n=3. For statistical analyses, an unpaired Student's t-test was used; **=p<0.01. […] Results were expressed as nmol NAD*/min/mg mitochondrial protein for complex I, nmol reduced cytochrome c/min/mg mitochondrial protein for complexes II-III, nmol oxidized cytochrome c/min/mg mitochondrial protein for complex IV. […] Results are expressed as nmol/mg mitochondrial proteins. […] Results are expressed as pmol CO2/h/mg protein. […] (H) TCA cycle enzymes activities are reported in boxes and expressed as mU/mg mitochondrial proteins. […] Results were expressed as nmol NAD^+/min/mg mitochondrial protein for complex I, nmol reduced cytochrome c/min/mg mitochondrial protein for complexes II-III, nmol oxidized cytochrome c/min/mg mitochondrial protein for complex IV. […] Results are expressed as nmol/mg mitochondrial proteins. […]

SH-SY5Y cells = experiment: Mitochondrial ATP levels in SHSY-5Y cells; settings: FLVCR1a-silenced vs scramble shRNA SH-SY5Y cells
Text: as §1

Caco2 cells = experiment: Proliferation of Caco2 cells (crystal violet staining, cell viability); settings: FLVCR1a-silenced vs scramble shRNA Caco2 cells
Text: (A) Proliferation of Caco2 cells assessed by crystal violet staining at the indicated days; bar=1000 μm. […] Staining quantification is reported in the bar graph as percentage of crystal violet stained area. Data represent mean±SEM, n=4. For statistical analyses, a two-way analysis of variance was used, followed by the Bonferroni correction for multiple group comparisons; *=p<0.05, ***=p<0.001. (B) Caco2 cells viability the day of plating (day 0) and three days after plaiting (day 3). The measure is considered a readout of cell proliferation. […] Data represent mean±SEM, n=3 wells. For statistical analyses, a two-way analysis of variance was used, followed by the Bonferroni correction for multiple group comparisons; *=p<0.05, **=p<0.01. (C, D, E) Representative flow cytometric analyses of apoptosis in synchronized Caco2 (C), SKCO1 (D) and C80 (E) cells. […]
To assess cell viability, the CellTiter-Fluor Cell Viability Assay (Promega, Madison, WI USA, catalog n°G6080) was used. […] The detection of cell viability at different consecutive time points was regarded as a readout of cell proliferation.
For crystal violet staining, 1*10^4 Caco2 cells were seeded in 6-well plates. […] Stained area was assessed by analyses of four representative photos per day for each triplicate using Fiji open source software (Schindelin et al., 2012) (http://fiji.sc/ RRID:SCR_002285).

FLVCR1a shRNA: shRNA specifically down-regulating FLVCR1a without targeting FLVCR1b; pLKO.1 lentiviral clone TRCN0000059599, antisense SEQ ID No.: 2 (antisense TTGCTAATGATGCTGTACTGG; sense CCAGTACAGCATCATTAGCAA)
mitochondrial ATP levels (BTECs): increased mitochondrial ATP levels | mitochondrial ATP levels (SH-SY5Y cells): increased mitochondrial ATP levels | cell proliferation (Caco2 cells): proliferated more slowly
